Assay results as given in US20140271667A1, “Methods and Compositions for Neoadjuvant Therapy” (The Wistar Institute of Anatomy and Biology, priority 2013, published 2014).
“Also recorded” adds a separate entry of the source.

Assays:
LN229 spheroids [1] = assay: Tumor cell invasion in 3D organotypic spheroids embedded in collagen; type: cell-based, human; details: LN229 spheroids in collagen matrix; Gamitrinib 1.25-2.5 μM; 72 h
Procedure: (§1) For cell migration experiments using a wound closure assay, confluent monolayers of MRC-5 cells were incubated with vehicle or Gamitrinib (5-10 μM), and wounded using a 10 μl pipette tip. Three micrographs/well were obtained at time=0, 16 and 24 h after wounding, and the percentage of wound closure was normalized to the maximum initial area for each well. For analysis of tumor cell invasion in 3D organotypic spheroids, tumor cells (5×10^4) were seeded onto 96-well plates coated with 1.5% agar (Difco Noble Agar) in PBS, pH 7.4. Spheroids were allowed to form over a 72 h period and then embedded in […] of bovine collagen type I (Organogenesis) in 24-well plates. Spheroids were overlaid with 1 ml of growth medium, treated with various concentrations of Gamitrinib for 72 h, and analyzed for changes in maximum invasion distance and invasion area. Quantification of live vs. dead cells under the various conditions tested was performed by staining the spheroids with calcein-AM (live, bright cluster) and Topro-3 (dead, dark spots) (Invitrogen) for 2 h. Samples were imaged using a Prairie Ultima II 2-photon microscope (Prairie Technologies, Inc, Middleton, Wis.), and stacks of 100 slices were generated in 2 channels. 3-D reconstruction of the labeled spheroids and analysis of cell staining was carried out using ImagePro Plus 3D software (Media Cybernetics, Silver Spring Md.).

PC3 cells [2] = assay: Cell proliferation by direct cell counting; type: cell-based, human; details: vs vehicle, Gamitrinib 5 μM, CCCP 12.5 μM, 2-DG 25 mM
Procedure: (§2) Tumor cells were plated onto 96-well plates at 3.7×10^3/well and treated with vehicle or Gamitrinib (5 μM). After 24 h, cell viability was assessed with a 3 (4,5-dimethyl-thyazoyl-2-yl)2,5 diphenyltetrazolium bromide (MTT) colorimetric assay (24), or, alternatively, by Trypan blue exclusion and light microscopy. Data were background-subtracted relative to vehicle-treated cultures. In some experiments, tumor cell proliferation was assessed by direct cell counting and light microscopy.

LN229 spheroids [3] = assay: Spheroid live/dead staining (calcein-AM/Topro-3), 2-photon microscopy; type: cell-based, human
Procedure: as §1

[4] = test system: normal human MRC-5 lung fibroblasts; assay: Wound closure assay, normal fibroblasts; type: cell-based; details: Gamitrinib 5-10 μM, 16 or 24 h
Procedure: as §1

tumor cells [5] = assay: F-actin staining (rhodamine-phalloidin), confocal microscopy; type: cell-based, human; details: Gamitrinib 5 μM; fluorescence microscopy
Procedure: Tumor cells growing at low confluency (1-2×10^4/well) on optical grade glass coverslips were treated with vehicle or Gamitrinib (5 μM), fixed in 4% formaldehyde for 15 min at 37° C., washed in PBS, pH 7.4, and permeabilized with 0.1% Triton X-100 for 5 min at 22° C. Slides were washed in PBS, pH 7.4, blocked in 1% BSA/PBS for 30 min, incubated with 1:2000 dilution of phalloidin-rhodamine (Molecular Probes) for 30 min, washed in PBS, pH 7.4, and mounted in Fluoromount G medium (Southern Biotech). Slides were analyzed on a Leica TCS SP2 confocal laser microscope with a 100× oil objective.

[6] = test system: Focal Adhesion Kinase (FAK); assay: Western blotting, FAK phosphorylation; type: cell-based, human; details: tumor cells (PC3); Gamitrinib 5 μM, CCCP 12.5 μM, rapamycin 0.1 μM
Procedure: (§3) Protein lysates were prepared in RIPA buffer containing 150 mM NaCl, 1.0% Triton X-100, 0.5% sodium deoxycholate, 0.1% SDS, 50 mM Tris, pH 8.0, in the presence of EDTA-free protease inhibitor cocktail (Roche) and phosphatase inhibitor cocktail 2 and 3 (Sigma Aldrich). Equal amounts of protein lysates were separated by SDS gel electrophoresis, transferred to PVDF membranes and incubated with primary antibodies of various specificities. Protein bands were detected by chemiluminescence, as described (21).

Src = assay: Western blotting, Src phosphorylation; type: cell-based, human; details: Gamitrinib 5 μM
Procedure: as §3

Akt or ERK = assay: Western blotting, Akt or ERK phosphorylation; type: cell-based, human; details: Gamitrinib 5 μM
Procedure: as §3

PC3 cells [7] = assay: Cell death by Trypan blue exclusion; type: cell-based; details: vs vehicle, Gamitrinib 5 μM, CCCP 12.5 μM, 2-DG 25 mM
Procedure: as §2

LN229 cells = assay: Galactose challenge cell viability; type: cell-based, human; details: Gamitrinib 5 μM
Procedure: Human glioblastoma LN229, prostate adenocarcinoma PC3 and PC3-ML subline, lung adenocarcinoma H1299, H1437, H460 and A549, breast adenocarcinoma MDA-MB-231, melanoma 1205Lu and WM793, or normal NIH3T3 and MRC-5 fibroblasts were obtained from the American Tissue Culture Collection (ATCC), and maintained in culture according to the supplier's specifications. For metabolic stress experiments, cells were incubated in MEM-based media containing glucose, essential and non-essential amino acids and vitamins in identical concentration as DMEM, plus 4 mM L-glutamine, 1 mM sodium pyruvate, 10 mM HEPES, and 10% 10 K dialyzed FBS (Gibco). Three conditions were tested: 25 mM glucose (complete medium), 5 mM glucose or 50% amino acid deprivation compared to DMEM. […]
as §2, with “Data were background-subtracted relative to vehicle-treated cultures.” left out

Raptor = assay: Western blotting, Raptor phosphorylation; type: cell-based, human; details: PC3; Gamitrinib 5 μM, metformin 5 mM 6 h, 17-AAG 5 μM
Procedure: as §3

FIP200 = FIP200 phosphoisotypes, phosphate-affinity SDS gel mobility shift; type: cell-based, human; details: PC3; Gamitrinib 5 μM
Procedure: Analysis of phosphoisotypes was carried out by standard phosphate-affinity SDS gel electrophoresis, using a mobility shift protocol (56). Briefly, proteins were separated by electrophoresis on 3% polyacrylamide/0.5% SeaKem Gold Agarose (Lonza) gels containing the dinuclear metal complex Mn2+-Phos-tag (Acrylamide-pendant Phos-tag, Wako Chemicals). After removal of Mn2+ by washing the gels in blotting buffer containing 1 mM EDTA, proteins were transferred to PVDF membranes and detected by Western blotting using antibodies to FIP200 or pan-phosphorylated Ser residues.

bone metastatic disease = details: orthotopic xenograft models and genetic mouse models; cited from earlier work
tumor cells [8] = details: previous data (23); cited from earlier work

For Gamitrinib, the “invasive length and invasive areas” value (LN229 spheroids [1]) was “nearly complete suppression”, the “tumor cell invasion in organotypic spheroids” value (LN229 spheroids [1]) was “blocked tumor cell invasion” and the tumor cell proliferation (PC3 cells [2]) was “did not reduce tumor cell proliferation; also recorded: did not affect cell proliferation”. For the same substance, the “overall cell viability in a 3-D microenvironment” value (LN229 spheroids [3]) was “not affected”, the “migration of normal human fibroblasts in wound closure assay” value [4] was “did not affect migration” and the actin cytoskeletal assembly (tumor cells [5]) was “suppressed actin cytoskeletal assembly”. For the same substance, the “FAK phosphorylation on Tyr397 and Tyr925” value [6] was “loss of phosphorylation”, the “Src phosphorylation on Tyr416” value (Src) was “inhibited the phosphorylation” and the “Akt or ERK phosphorylation” value (Akt or ERK) was “not affected”. The “cell death by Trypan blue exclusion” value (PC3 cells [7]) was “did not affect”, the “tumor cell viability in 100% galactose” value (LN229 cells; 0% Glc-100% Gal) was “nearly complete tumor cell death” and the “tumor cell viability in glucose or 50% galactose” value (LN229 cells; 100% glucose or 50% Glc-50% Gal) was “did not significantly reduce tumor cell viability”. For the same substance, the “Raptor phosphorylation on Ser792” value (Raptor) was “induced strong phosphorylation”, the “FIP200 gel mobility (phosphorylation)” value (FIP200) was “gel mobility retardation, suggestive of increased phosphorylation” and the bone metastatic disease (bone metastatic disease) was “inhibit bone metastatic disease”. For the same substance, the “O2 consumption in tumor cells” value (tumor cells [8]) was “inhibited O2 consumption”.
